# Measured values taken from US9453242B2, “Method and culture medium for preparing mammalian ovum or embryo in which zona pellucida has been thinned or eliminated, and method for fertilization using mammalian ovum prepared by same method” (NATIONAL UNIVERISTY CORPORATION KUMAMOTO UNIVERSITY, priority 2010, dated 2016).
# Where two headings read alike, the source gives them in different places.
# What was measured:
# [1] = system: zona pellucida of mouse fresh unfertilized ovums
# Description: Mouse fresh unfertilized ovums in which cumulus cells had been removed prepared according to the above-described “1. Preparation of ovum” were prepared. The ovums were treated with an HTF culture medium containing glutathione at a concentration of 100 mM (30.7 mg/ml) at 20° C. for 90 seconds. The operation conducted is explained referring to FIG. 7. Onto the bottom of a petri dish, 10 μl of a glutathione-containing HTF culture medium was dropped, and 10 embryos were inserted into this. […] After confirmation of disappearance of zona pellucida, the embryos were immediately diluted with 1000 μl of an HTF culture medium containing no glutathione, for avoiding damage on the embryos. Thereafter, the zona pellucida-eliminated embryos were transferred into a 100 μl drop of HTF, and further, transferred into a 100 μl drop of HTF twice, thus continuing incubation.
# Elimination of the zona pellucida of an unfertilized ovum was conducted in the same manner as in Example 4 excepting use of an HTF culture medium having a glutathione concentration of 50 mM (15.4 mg/ml).
# Mouse fresh unfertilized ovums in which cumulus cells had been removed prepared according to the above-described “1. Preparation of oocyte” were prepared, then, 10 μl of an HTF culture medium containing glutathione at various concentrations (5, 10, 25, 50, 100, 200 and 300 mM) was dropped onto the bottom of a petri dish, and 20 ovums were inserted into this, and the time until elimination of zona pellucida was measured.
# [2] = system: mouse embryo in the early stages of development (8-cell stage embryo); details: glutathione 100 mM, 20° C., 90 seconds
# Description: The zona pellucida of a mouse embryo in the early stages of development (8-cell stage embryo) used for production of a genetically modified mouse was eliminated.
# [3] = system: protein thiol in zona pellucida; details: glutathione 0.25 to 2.0 mM, 37° C., 1 hour; Alexa Fluor 488 C5-maleimide
# Description: Mouse fresh unfertilized ovums in which cumulus cells had been removed prepared according to the above-described “1. Preparation of oocyte” were prepared, then, 100 μl of an HTF culture medium containing glutathione at various concentrations (0, 0.25, 0.5, 0.75, 1.0, 1.25, 1.5 and 2.0 mM) was dropped onto the bottom of a petri dish, and 50 embryos were inserted into this, and treated at 37° C. for 1 hour. Thereafter, a protein thiol in zona pellucida was detected by using a thiol-reactive fluorescent dye (Alexa Fluor 488 C5-maleimide).
# [4] = glutathione 100 mM (30.7 mg/ml), 20° C.
compound,measurement,setting,value
"N[C@@H](CCC(=O)N[C@@H](CS)C(=O)NCC(=O)O)C(=O)O [glutathione, reduced glutathione]",glutathione concentration at which zona pellucida was eliminated,[1],≥ 50 mM
same,condition of zona pellucida,[1]; glutathione 5 mM in HTF,thinning
same,condition of zona pellucida,[1]; glutathione 10 mM in HTF,thinning
same,condition of zona pellucida,[1]; glutathione 25 mM in HTF,thinning
same,condition of zona pellucida,[1]; glutathione 50 mM in HTF,elimination
same,time (second) necessary for lysis of zona pellucida,[1]; glutathione 50 mM in HTF,"<1,500 second"
same,zona pellucida-eliminated embryos produced,"[1]; glutathione 50 mM, using 20 embryos, 2 experiments",20
same,time after which zona pellucida began to become thin (swell),[1]; [4],30 s
same,time after which zona pellucida disappeared completely,[1]; [4],90 s
same,condition of zona pellucida,[1]; glutathione 100 mM in HTF,elimination
same,time (second) necessary for lysis of zona pellucida,[1]; glutathione 100 mM in HTF,<60 s
same,zona pellucida-eliminated embryos produced,"[1]; glutathione 100 mM, using 70 embryos, 10 experiments",70
same,condition of zona pellucida,[1]; glutathione 200 mM in HTF,elimination
same,time (second) necessary for lysis of zona pellucida,[1]; glutathione 200 mM in HTF,<50 s
same,condition of zona pellucida,[1]; glutathione 300 mM in HTF,elimination
same,time (second) necessary for lysis of zona pellucida,[1]; glutathione 300 mM in HTF,<10 s
same,elimination of zona pellucida of 8-cell stage embryo,[2],elimination of zona pellucida from a 8-cell stage embryo
same,fluorescent intensity in zona pellucida (free thiol group),[3],the fluorescent intensity in zona pellucida increased depending on the concentration of glutathione
